The record followed here is patent publication US11590139B2, “Substituted aminopurine compounds, compositions thereof, and methods of treatment therewith” (Signal Pharmaceuticals, LLC, priority 2014, dated 2023).

In one test the test system is Lox-IMVI melanoma cell line. Nature of the test: Lox-IMVI anti-proliferative assay (growth inhibition, Cell Titer-Glo). The class given is cell-based, human. Particulars: Homo sapiens; IC50 activity level in the cell-based Lox-IMVI anti-proliferative assay; read-out: Activity. The procedure, abridged:
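RPMI/10% FBS; cmpd 0.5 nM–10 μM, 3-fold ×10, duplicate, 0.2% DMSO final; 72 h, 37 °C, 5% CO2. ATP-luminescence readout at t0 and 72 h. IC50 = 50% of DMSO control, 4-parameter logistic fit.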
(Cellular ATP, detected with luciferase, serves as a proxy for viable cell number.)
Take `NC(=O)[C@H]1CC[C@@H](n2c(Nc3c(F)ccc(Cl)c3F)nc3cnc(NC4CCC(F)(F)CC4)nc32)CC1` [Example 291, (1s,4s)-4-(8-(3-chloro-2,6-difluorophenylamino)-2-(4,4-difluorocyclohexylamino)-9H-purin-9-yl)cyclohexanecarboxamide]: the IC50 was 0.5 to 1 µM.
Same read-out and setting: then `NC(=O)[C@H]1CC[C@@H](n2c(Nc3c(F)cc(Cl)cc3F)nc3cnc(N[C@H]4CCC[C@@H](O)C4)nc32)CC1` [Example 372, (1R,4s)-4-(8-(4-chloro-2,6-difluorophenylamino)-2-((1S,3R)-3-hydroxycyclohexylamino)-9H-purin-9-yl)cyclohexanecarboxamide], with over 1 µM; and `CC[C@@H](CO)Nc1ncc2nc(Nc3c(Cl)cc(Cl)cc3Cl)n([C@H]3CC[C@@H](C(N)=O)CC3)c2n1` [Example 154, (1R,4s)-4-(2-((S)-1-hydroxybutan-2-ylamino)-8-(2,4,6-trichlorophenylamino)-9H-purin-9-yl)cyclohexanecarboxamide], with over 1 µM; and `CC(C)Nc1ncc2nc(Nc3c(Cl)cc(F)cc3Cl)n([C@H]3CC[C@@H](C(N)=O)CC3)c2n1` [Example 123, (1s,4s)-4-(8-(2,6-dichloro-4-fluorophenylamino)-2-(isopropylamino)-9H-purin-9-yl)cyclohexanecarboxamide], with 0.5 to 1 µM.
Same read-out and setting: under `C[C@@H](CO)Nc1ncc2nc(Nc3c(F)cc(F)cc3F)n([C@H]3CC[C@@H](C(N)=O)CC3)c2n1` [Example 164, (1R,4s)-4-(2-((S)-1-hydroxypropan-2-ylamino)-8-(2,4,6-trifluorophenylamino)-9H-purin-9-yl)cyclohexanecarboxamide] stands over 1 µM; under `NC(=O)[C@H]1CC[C@@H](n2c(Nc3ccc(Cl)c(F)c3F)nc3cnc(NC4CC5(COC5)C4)nc32)CC1` [Example 194, (1s,4s)-4-(2-(2-oxaspiro[3.3]heptan-6-ylamino)-8-(4-chloro-2,3-difluorophenylamino)-9H-purin-9-yl)cyclohexanecarboxamide], over 1 µM; under `NC(=O)[C@H]1CC[C@@H](n2c(Nc3ccc(Cl)cc3Cl)nc3cnc(NC4CCC(F)(F)CC4)nc32)CC1` [Example 240, (1s,4s)-4-(8-(2,4-dichlorophenylamino)-2-(4,4-difluorocyclohexylamino)-9H-purin-9-yl)cyclohexanecarboxamide], over 1 µM.
For the compound `CC(C)(C)OC(=O)N1CCC[C@@H](Nc2ncc3nc(Nc4c(F)cc(F)cc4Cl)n([C@H]4CC[C@@H](C(N)=O)CC4)c3n2)C1` [Example 161, (R)-tert-butyl 3-(9-((1s,4S)-4-carbamoylcyclohexyl)-8-(2-chloro-4,6-fluorophenylamino)-9H-purin-2-ylamino)piperidine-1-carboxylate], the IC50 is over 1 µM.
Same read-out and setting: then `NC(=O)[C@H]1CC[C@@H](n2c(Nc3ccc(Cl)c(F)c3F)nc3cnc(N[C@@H]4CCC[C@H]4O)nc32)CC1` [Example 258, (1S,4s)-4-(8-(4-chloro-2,3-difluorophenylamino)-2-((1R,2R)-2-hydroxycyclopentylamino)-9H-purin-9-yl)cyclohexanecarboxamide], with over 1 µM; and `NC(=O)[C@H]1CC[C@@H](n2c(Nc3c(F)ccc(F)c3F)nc3cnc(NC4CC(F)(F)C4)nc32)CC1` [Example 233, (1s,4s)-4-(2-(3,3-difluorocyclobutylamino)-8-(2,3,6-trifluorophenylamino)-9H-purin-9-yl)cyclohexanecarboxamide], with 0.5 to 1 µM.
Take `Cc1cc(F)cc(Cl)c1Nc1nc2cnc(NC3CCOCC3)nc2n1[C@H]1CC[C@@H](C(N)=O)CC1` [Example 74, (1s,4s)-4-(8-(2-chloro-4-fluoro-6-methylphenylamino)-2-(tetrahydro-2H-pyran-4-ylamino)-9H-purin-9-yl)cyclohexanecarboxamide]: the IC50 is over 1 µM.
The same measure, in the same setting: then `NC(=O)[C@H]1CC[C@@H](n2c(Nc3c(F)cc(F)cc3Cl)nc3cnc(N[C@@H]4CCCOC4)nc32)CC1` [Example 187, (1S,4s)-4-(8-(2-chloro-4,6-difluorophenylamino)-2-((R)-tetrahydro-2H-pyran-3-ylamino)-9H-purin-9-yl)cyclohexanecarboxamide], with over 1 µM; and `NC(=O)[C@H]1CC[C@@H](n2c(Nc3c(Cl)cc(Cl)cc3Cl)nc3cnc(N[C@H]4CCOC[C@@H]4F)nc32)CC1` [Example 246, (1R,4s)-4-(2-((3R,4S)-3-fluorotetrahydro-2H-pyran-4-ylamino)-8-(2,4,6-trichlorophenylamino)-9H-purin-9-yl)cyclohexanecarboxamide], with 0.5 to 1 µM; and `Cc1ccc(Nc2nc3cnc(NC4CCOCC4)nc3n2[C@H]2CC[C@@H](C(N)=O)CC2)c(Cl)c1Cl` [Example 85, (1s,4s)-4-(8-(2,3-dichloro-4-methylphenylamino)-2-(tetrahydro-2H-pyran-4-ylamino)-9H-purin-9-yl)cyclohexanecarboxamide], with over 1 µM.

The same test, now with this note: Homo sapiens; Lox-IMVI anti-proliferative assay, IC50 activity level; read-out: Activity.
Consider `C[C@]1(C(N)=O)CC[C@H](n2c(Nc3c(F)cc(Cl)cc3Cl)nc3cnc(NC4CCCC4)nc32)CC1` [Example 492, (1r,4r)-4-(2-(cyclopentylamino)-8-(2,4-dichloro-6-fluorophenylamino)-9H-purin-9-yl)-1-methylcyclohexanecarboxamide], for which the IC50 lay within 0.5 to 1 µM.
On the same count and under the same terms, then `C[C@]1(C(N)=O)CC[C@@H](n2c(Nc3c(Cl)cc(C#N)cc3Cl)nc3cnc(N[C@@H]4CCC[C@H](O)C4)nc32)CC1` [Example 569, (1S,4s)-4-(8-(2,6-dichloro-4-cyanophenylamino)-2-((1R,3S)-3-hydroxycyclohexylamino)-9H-purin-9-yl)-1-methylcyclohexanecarboxamide], with under 0.25 µM; and `COC(=O)N1CCC[C@@H](Nc2ncc3nc(Nc4c(Cl)cc(F)cc4Cl)n([C@H]4CC[C@@H](C(N)=O)CC4)c3n2)C1` [Example 410, (R)-methyl 3-(9-((1s,4S)-4-carbamoylcyclohexyl)-8-(2,6-dichloro-4-fluorophenylamino)-9H-purin-2-ylamino)piperidine-1-carboxylate], with over 1 µM.
Turning to `NC(=O)[C@H]1CC[C@@H](n2c(Nc3c(F)cc(Cl)cc3Cl)nc3cnc(N[C@H]4CCC[C@H](O)C4)nc32)CC1` [Example 464, (1R,4s)-4-(8-(2,4-dichloro-6-fluorophenylamino)-2-((1S,3S)-3-hydroxycyclohexylamino)-9H-purin-9-yl)cyclohexanecarboxamide], the IC50 was in the range of 0.5 to 1 µM.
Still for that read-out and setting: under `C[C@]1(C(N)=O)CC[C@H](n2c(Nc3c(F)cc(F)cc3Cl)nc3cnc(NC4CCCC4)nc32)CC1` [Example 491, (1r,4r)-4-(8-(2-chloro-4,6-difluorophenylamino)-2-(cyclopentylamino)-9H-purin-9-yl)-1-methylcyclohexanecarboxamide] stands over 1 µM; under `C[C@]1(C(N)=O)CC[C@H](n2c(Nc3c(F)cc(C#N)cc3F)nc3cnc(NC4CCCC4)nc32)CC1` [Example 487, (1r,4r)-4-(8-(4-cyano-2,6-difluorophenylamino)-2-(cyclopentylamino)-9H-purin-9-yl)-1-methylcyclohexanecarboxamide], over 1 µM; under `NC(=O)[C@H]1CC[C@@H](n2c(Nc3c(F)cc(Cl)cc3Cl)nc3cnc(N[C@H]4CCC(F)(F)C4)nc32)CC1` [Example 591, (1R,4s)-4-(8-(2,4-dichloro-6-fluorophenylamino)-2-((S)-3,3-difluorocyclopentylamino)-9H-purin-9-yl)cyclohexanecarboxamide], 0.25 to 0.5 µM.

Staying with this test, now noted: Homo sapiens; Lox-IMVI melanoma cell line, anti-proliferative assay; read-out: Activity (IC50 activity level).
`C[C@]1(C(N)=O)CC[C@@H](n2c(Nc3c(Cl)cc(F)cc3Cl)nc3cnc(NC4CCOCC4)nc32)CC1` [Example 675, (1s,4s)-4-(8-(2,6-dichloro-4-fluorophenylamino)-2-(tetrahydro-2H-pyran-4-ylamino)-9H-purin-9-yl)-1-methylcyclohexanecarboxamide]: the IC50 is under 0.25 µM.
Consider `C[C@]1(C(N)=O)CC[C@@H](n2c(Nc3c(F)cc(C#N)cc3Cl)nc3cnc(N[C@H]4CCC[C@@H](O)C4)nc32)CC1` [Example 633, (1R,4s)-4-(8-(2-chloro-4-cyano-6-fluorophenylamino)-2-((1S,3R)-3-hydroxycyclohexylamino)-9H-purin-9-yl)-1-methylcyclohexanecarboxamide], for which the IC50 was 0.5 to 1 µM.
On the same count and under the same terms, then `N#Cc1cc(F)c(Nc2nc3cnc(NC4CCC(c5ncno5)CC4)nc3n2[C@H]2CC[C@@H](C(N)=O)CC2)c(Cl)c1` (stereo partly drawn) [Example 680, (1s,4s)-4-(2-(4-(1,2,4-oxadiazol-5-yl)cyclohexylamino)-8-(2-chloro-4-cyano-6-fluorophenylamino)-9H-purin-9-yl)cyclohexanecarboxamide], with over 1 µM; and `CCN1CCC[C@@H](Nc2ncc3nc(Nc4c(F)cc(Cl)cc4Cl)n([C@H]4CC[C@@H](C(N)=O)CC4)c3n2)C1` [Example 734, (1S,4s)-4-(8-(2,4-dichloro-6-fluorophenylamino)-2-((R)-1-ethylpiperidin-3-ylamino)-9H-purin-9-yl)cyclohexanecarboxamide], with over 1 µM; and `C[C@]1(C(N)=O)CC[C@@H](n2c(Nc3c(Cl)cc(Cl)cc3Cl)nc3cnc(N[C@@H]4CCC[C@@H](O)C4)nc32)CC1` [Example 619, (1S,4s)-4-(2-((1R,3R)-3-hydroxycyclohexylamino)-8-(2,4,6-trichlorophenylamino)-9H-purin-9-yl)-1-methylcyclohexanecarboxamide], with 0.5 to 1 µM.
Still for that read-out and setting: under `CNC(=O)N1CCC[C@@H](Nc2ncc3nc(Nc4c(Cl)cc(C(F)(F)F)cc4Cl)n([C@H]4CC[C@@H](C(N)=O)CC4)c3n2)C1` [Example 796, (R)-3-(9-((1s,4S)-4-carbamoylcyclohexyl)-8-(2,6-dichloro-4-(trifluoromethyl)phenylamino)-9H-purin-2-ylamino)-N-methylpiperidine-1-carboxamide] stands over 1 µM.
